{"source": "patent US20230114728A1", "about": "(Venatorx Pharmaceuticals, Inc., priority 2019, published 2023)", "key": {"[1]": {"molecular_target": "T1, E. coli K12 PBP2 (Escherichia coli, UniProt P0AD65)", "T1 construct": "made in house", "T1 sequence (P0AD65 whole entry)": "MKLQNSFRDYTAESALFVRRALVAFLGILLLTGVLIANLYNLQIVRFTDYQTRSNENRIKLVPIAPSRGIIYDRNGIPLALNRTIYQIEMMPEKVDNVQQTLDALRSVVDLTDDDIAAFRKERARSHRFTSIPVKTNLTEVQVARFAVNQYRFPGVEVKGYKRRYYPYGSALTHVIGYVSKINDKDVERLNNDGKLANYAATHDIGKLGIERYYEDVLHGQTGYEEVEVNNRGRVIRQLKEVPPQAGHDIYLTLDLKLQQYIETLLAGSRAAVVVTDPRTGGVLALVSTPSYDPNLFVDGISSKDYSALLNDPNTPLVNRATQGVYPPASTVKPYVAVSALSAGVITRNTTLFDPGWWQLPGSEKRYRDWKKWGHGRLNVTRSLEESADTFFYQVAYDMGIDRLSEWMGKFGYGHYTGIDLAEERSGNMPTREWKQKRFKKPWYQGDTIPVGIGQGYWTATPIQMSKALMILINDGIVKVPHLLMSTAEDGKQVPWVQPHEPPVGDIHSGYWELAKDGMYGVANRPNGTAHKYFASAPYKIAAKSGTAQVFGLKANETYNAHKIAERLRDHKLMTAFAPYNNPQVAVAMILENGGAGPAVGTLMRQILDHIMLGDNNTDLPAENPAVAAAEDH", "assay": "Bocillin-FL fluorescence polarization competition binding assay, E. coli PBP2", "description": "(§1) Example I: Experimental Method for Penicillin-Binding Protein Binding Assays with Bocillin-FL Via Fluorescence Polarization\n(§2) To determine the ability of boronic acid-based test PBP inhibitors to bind Penicillin Binding Proteins (PBPs), Bocillin-FL (fluorescently-labeled penicillin V; ThermoFisher Scientific) was used in a fluorescence polarization (FP) competition binding assay to assess inhibitor binding to PBP2, PBP3 or PBP4 from Escherichia coli (K12), PBP3 from Pseudomonas aeruginosa (PA01), PBP1a, PBP2 and PBP3 from Acinetobacter baumannii (ATCC 19606), and PBP2 from Neiserria gonorrheae (FA19). PBPs were cloned and purified as described previously (E. coli PBPs, King, D. T, et al., ACS Infectious Diseases 2015, 1, 175-184; P. aeruginosa PBP3, Han et. al., PNAS 2010, 107 (51), 22002-22007; A. baumannii PBPs, Penwell et. al., Antimicrob. Agents Chemother. 2015, 59 (3), 1680-1689; N. gonorrhoeae PBP2, Singh et. al., J Biol. Chem. 2019, 294 (38), 14020-14032). To establish assay conditions for competition binding, enzyme titration/saturation binding experiments were initially performed. Bocillin-FL was prepared at 0.2 μM in a buffer comprised of 50 mM Hepes (pH 8.0), 300 mM NaCl and 5% (v/v) glycerol for reactions with E. coli, P. aeruginosa and N. gonorrhoeae PBPs, and 25 mM Tris (pH 8.0), 200 mM NaCl and 10% (v/v) glycerol and 0.005% (v/v) Tween 20 for reactions with A. baumannii PBPs. Saturation binding was performed by mixing 40 μl of PBP solutions ranging in concentrations from 0-24 μM with 40 μl of the 0.2 μM Bocillin-FL solution, in individual wells of a black 384-well microplate. FP was measured immediately upon mixing (Excitation, 490 nm; Emission, 520 nm; g-factor, 0.96), using a Cytation3 (BioTek) microplate reader and measured continuously for up to 120 minutes. […] Bocillin-FL was added and the FP immediately measured for up to 60 minutes (90 minutes for E. coli PBP2). […]"}, "[2]": {"molecular_target": "T2, E. coli K12 PBP4 (Escherichia coli, UniProt P24228)", "T2 construct": "made in house", "T2 sequence (P24228 21-477)": "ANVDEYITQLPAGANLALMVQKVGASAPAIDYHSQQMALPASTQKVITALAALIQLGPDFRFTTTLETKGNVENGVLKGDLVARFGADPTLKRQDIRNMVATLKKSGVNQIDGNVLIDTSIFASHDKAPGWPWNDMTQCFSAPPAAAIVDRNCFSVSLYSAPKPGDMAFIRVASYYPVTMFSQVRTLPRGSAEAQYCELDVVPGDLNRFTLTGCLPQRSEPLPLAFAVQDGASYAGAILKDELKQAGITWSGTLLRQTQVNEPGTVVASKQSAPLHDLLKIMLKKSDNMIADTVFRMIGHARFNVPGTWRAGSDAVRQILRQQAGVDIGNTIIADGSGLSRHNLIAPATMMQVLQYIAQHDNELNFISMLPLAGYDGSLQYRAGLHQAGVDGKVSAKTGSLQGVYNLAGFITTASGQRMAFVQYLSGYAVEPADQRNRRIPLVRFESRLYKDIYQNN", "assay": "Bocillin-FL fluorescence polarization competition binding assay, E. coli PBP4", "details": "fluorescence polarization competition binding assay using Bocillin-FL; read-out: E. coli K12 PBP4 Potency (EC50)", "description": "as §1, §2"}, "[3]": {"molecular_target": "T3, E. coli K12 PBP1b (Escherichia coli, UniProt P02919)", "T3 construct": "made in house", "T3 sequence (P02919 whole entry)": "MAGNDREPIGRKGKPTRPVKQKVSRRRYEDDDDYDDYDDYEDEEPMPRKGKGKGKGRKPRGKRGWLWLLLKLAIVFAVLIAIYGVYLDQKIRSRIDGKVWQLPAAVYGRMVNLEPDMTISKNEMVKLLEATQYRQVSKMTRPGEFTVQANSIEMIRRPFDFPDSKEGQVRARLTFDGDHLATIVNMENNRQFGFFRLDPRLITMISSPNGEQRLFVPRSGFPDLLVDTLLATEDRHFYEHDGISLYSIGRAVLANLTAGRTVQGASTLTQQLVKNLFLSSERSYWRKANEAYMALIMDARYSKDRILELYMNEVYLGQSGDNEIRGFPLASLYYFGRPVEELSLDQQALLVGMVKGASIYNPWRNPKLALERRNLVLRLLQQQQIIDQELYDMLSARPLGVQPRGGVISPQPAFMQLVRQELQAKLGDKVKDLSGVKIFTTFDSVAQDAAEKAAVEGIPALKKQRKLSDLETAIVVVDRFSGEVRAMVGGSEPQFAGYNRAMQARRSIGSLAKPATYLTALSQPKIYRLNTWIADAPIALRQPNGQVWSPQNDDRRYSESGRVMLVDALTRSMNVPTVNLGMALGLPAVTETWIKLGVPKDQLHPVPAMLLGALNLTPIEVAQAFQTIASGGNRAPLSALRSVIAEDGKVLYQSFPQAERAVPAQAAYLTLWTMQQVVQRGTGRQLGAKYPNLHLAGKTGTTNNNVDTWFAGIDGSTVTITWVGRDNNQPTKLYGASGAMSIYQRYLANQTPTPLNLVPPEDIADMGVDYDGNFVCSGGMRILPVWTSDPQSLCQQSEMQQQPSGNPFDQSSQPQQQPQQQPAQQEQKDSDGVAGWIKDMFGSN", "assay": "Radioligand competition binding assay with 14C-labeled boronic acid probe, E. coli PBP1b", "details": "competition binding assay using 14C-labeled boronic acid probe; read-out: E. coli K12 PBP1b EC50", "description": "Example II: Experimental Method to Assess Binding to Penicillin-Binding Proteins: Radioligand Competition Binding Assay\nTo determine the ability of boronic acid-based test PBP inhibitors to bind Penicillin Binding Proteins (PBPs), a radio-labelled boronic acid PBP inhibitor:\nwas used in competition binding assays to determine boronic acid PBP inhibitor binding to PBP1a or PBP1b from Escherichia coli. PBP1a and PBP1b were purified as described previously (Bertsche, U.; et al., J Biol. Chem. 2005, 280 (45), 38096-38101; Born, P.; et al., J Biol. Chem. 2006. 281 (37), 26985-26993). To establish assay conditions for competition binding, an enzyme titration/saturation binding experiment was performed. Saturation binding was performed in a buffer comprised of 20 mM Tris (pH 7.5), 500 mM NaCl and 0.1% (v/v) TritonX-100, with PBP1a/PBP1b at a final concentration of 0.1 μM and Compound A at final concentrations ranging from 0-100 μM. Mixtures were incubated for 60 minutes, then applied to Zeba Spin Desalting columns or plates (ThermoFisher Scientific) and centrifuged at 1000-1500×g for 2 minutes. The flow through, containing PBP bound with Compound A, was recovered and 100 μL mixed with 5 mL of UltimaGold liquid scintillation cocktail (Perkin Elmer), and the radioactivity counted using a Beckman Coulter LS 6500 Multipurpose scintillation counter. PBP binding of Compound A approached saturation at 20 μM of ^14C-labeled probe. The competition binding assay was validated using the beta-lactam ampicillin, with Compound A at a final concentration of 20 μM, PBP1a/PBP1b at a final concentration of 0.1 μM. PBP1a/PBP1b was incubated with ampicillin in a 96-well microplate for 60 minutes, then Compound A was added and the mixtures incubated for an additional 60 minutes. The mixtures were then applied to Zeba Spin desalting plates and centrifuged at 1000×g for 2 minutes. The flow through was recovered and 100 μl mixed with 5 ml of UltimaGold liquid scintillation cocktail and the radioactivity counted. […] Binding assays with boronic acid PBP inhibitors were performed in an identical fashion. […]"}}}
{"compound": "CCN1CCN(C(=O)NC(C(=O)N[C@H]2Cc3ccc(SCc4ccc(O)cc4)c(C(=O)O)c3OB2O)c2csc(N)n2)C(=O)C1=O", "note": "(stereo partly drawn) [Example 55, (3R)-3-(2-(2-aminothiazol-4-yl)-2-(4-ethyl-2,3-dioxopiperazine-1-carboxamido)acetamido)-2-hydroxy-7-((4-hydroxybenzyl)thio)-3,4-dihydro-2H-benzo[e][1,2]oxaborinine-8-carboxylic acid]", "values": [{"measurement": "EC50", "setting": "[1]", "value": "30 to 500", "unit": "µM"}, {"measurement": "EC50", "setting": "[2]", "value": "30 to 500", "unit": "µM"}, {"measurement": "EC50", "setting": "[3]", "value": "> 100", "unit": "µM"}]}
{"compound": "CCN1CCN(C(=O)NC(C(=O)N[C@H]2Cc3ccc(S)c(C(=O)O)c3OB2O)c2csc(N)n2)C(=O)C1=O", "note": "(stereo partly drawn) [Example 54, (3R)-3-(2-(2-aminothiazol-4-yl)-2-(4-ethyl-2,3-dioxopiperazine-1-carboxamido)acetamido)-2-hydroxy-7-mercapto-3,4-dihydro-2H-benzo[e][1,2]oxaborinine-8-carboxylic acid]", "values": [{"measurement": "EC50", "setting": "[1]", "value": "30 to 500", "unit": "µM"}, {"measurement": "EC50", "setting": "[2]", "value": "30 to 500", "unit": "µM"}, {"measurement": "EC50", "setting": "[3]", "value": "10 to 100", "unit": "µM"}]}
